Values quoted from earlier work as cited in patent US20240238439A1, “HER3-BINDING ANTIBODY-DRUG CONJUGATE” (Hummingbird Bioscience Pte. Ltd., priority 2023, published 2024).

Settings: subset of EGFR-mutant and TKI-resistant lung cancers, and metastatic breast cancers; cited from earlier work

## Patritumab-DXd
  clinical responses: clinical responses have been observed
